Experimental data published in patent US20240000872A1, “NOVEL BACTERIOPHAGE THAT LYSES ACINETOBACTER GENUS BACTERIA HAVING RESISTANCE TO ANTIBIOTICS” (priority 2020, published 2024).

Test system: Acinetobacter baumannii strains
Assay: Antibiotic susceptibility test (CLSI disk diffusion test method, read per CLSI 2016)
Assay type: cell-based
Description: Strain identification was performed using a kit such as AT 32 GN system (bioMérieux, Marcy l'Etoile, France). […] In Table 2 below, S, I, and R are the results obtained by evaluating susceptibility to the antibacterial agents, in which ‘S’ means susceptible, ‘I’ means intermediate, and ‘R’ means resistant.
Strain identification was performed using a kit such as ATB 32 GN system (bioMédrieux, Marcy l'Etoile, France). […] In Table 6 below, S, I, and R are the results obtained by evaluating susceptibility to the antibacterial agents, in which ‘S’ means susceptible, ‘I’ means intermediate, and ‘R’ means resistant.
Strain identification was performed using a kit such as ATB 32 GN system (bioMérieux, Marcy l'Etoile, France). […] In Table 10 below, S, I, and R are the results obtained by evaluating susceptibility to the antibacterial agents, in which ‘S’ means susceptible, T means intermediate, and ‘R’ means resistant.

C[C@H]1COc2c(N3CCN(C)CC3)c(F)cc3c(=O)c(C(=O)O)cn1c23 [Levofloxacin, levofloxacin]
antibiotic susceptibility class (host strain YMC14/01/C29): R | antibiotic susceptibility class (host strain YMC14/01/IP122): I | antibiotic susceptibility class (host strain YMC14/01/L8): R | antibiotic susceptibility class (host strain YMC14/01/P31): R | antibiotic susceptibility class (host strain YMC14/01/P117): I | antibiotic susceptibility class (host strain YMC14/01/P224): R | antibiotic susceptibility class (host strain YMC14/01/P727): R | antibiotic susceptibility class (host strain YMC14/01/P728): R | antibiotic susceptibility class (host strain YMC14/01/R130): R | antibiotic susceptibility class (host strain YMC14/01/R160): R | antibiotic susceptibility class (host strain YMC14/01/R198): R | antibiotic susceptibility class (host strain YMC14/01/R257): R | antibiotic susceptibility class (host strain YMC14/01/R270): R | antibiotic susceptibility class (host strain YMC14/01/R324): R | antibiotic susceptibility class (host strain YMC14/01/R443): R | antibiotic susceptibility class (host strain YMC14/01/R451): R | antibiotic susceptibility class (host strain YMC14/01/R560): R | antibiotic susceptibility class (host strain YMC14/01/R617): R | antibiotic susceptibility class (host strain YMC14/01/R671): R | antibiotic susceptibility class (host strain YMC14/01/R732): R | antibiotic susceptibility class (host strain YMC14/01/R767): R | antibiotic susceptibility class (host strain YMC14/01/R904): R | antibiotic susceptibility class (host strain YMC14/01/R905): R | antibiotic susceptibility class (host strain YMC14/01/R921): R | antibiotic susceptibility class (host strain YMC14/01/R941): R | antibiotic susceptibility class (host strain YMC14/01/R958): R | antibiotic susceptibility class (host strain YMC14/01/R1006): R | antibiotic susceptibility class (host strain YMC14/01/R1199): R | antibiotic susceptibility class (host strain YMC14/01/R1659): R | antibiotic susceptibility class (host strain YMC14/01/R1722): R | antibiotic susceptibility class (host strain YMC14/01/R1752): R | antibiotic susceptibility class (host strain YMC14/01/R2429): R | antibiotic susceptibility class (host strain YMC14/01/R2572): R | antibiotic susceptibility class (host strain YMC14/01/R2855): R | antibiotic susceptibility class (host strain YMC14/01/R2945): R | antibiotic susceptibility class (host strain YMC14/01/R3007): R | antibiotic susceptibility class (host strain YMC14/01/R3129): R | antibiotic susceptibility class (host strain YMC14/01/R3317): R | antibiotic susceptibility class (host strain YMC14/01/R3474): I | antibiotic susceptibility class (host strain YMC14/01/R3574): R | antibiotic susceptibility class (host strain YMC14/01/U313): R | antibiotic susceptibility class (host strain YMC14/01/U318): R | antibiotic susceptibility class (host strain YMC14/02/L18): R | antibiotic susceptibility class (host strain YMC14/02/P47): R | antibiotic susceptibility class (host strain YMC14/02/R1860): R | antibiotic susceptibility class (host strain YMC14/02/R2417): R | antibiotic susceptibility class (host strain YMC14/02/R2599): R | antibiotic susceptibility class (host strain YMC14/02/R2668): R | antibiotic susceptibility class (host strain YMC14/02/R2758): R | antibiotic susceptibility class (host strain YMC14/02/R2781): R | antibiotic susceptibility class (host strain YMC14/02/R3106): R | antibiotic susceptibility class (host strain YMC14/02/R3419): R | antibiotic susceptibility class (host strain YMC14/02/U1607): R | antibiotic susceptibility class (host strain YMC14/03/L9): R | antibiotic susceptibility class (host strain YMC14/03/P471): R | antibiotic susceptibility class (host strain YMC14/03/R122): R | antibiotic susceptibility class (host strain YMC14/03/R217): R | antibiotic susceptibility class (host strain YMC14/03/R380): R | antibiotic susceptibility class (host strain YMC14/03/R618): R | antibiotic susceptibility class (host strain YMC14/03/R2144): R | antibiotic susceptibility class (host strain YMC14/03/U4616): R | antibiotic susceptibility class (host strain YMC14/04/R1078): R | antibiotic susceptibility class (host strain YMC14/04/R1080): R | antibiotic susceptibility S/I/R (host strain YMC14/06/R2359): R | susceptibility category (S/I/R) (host strain YMC14/06/R2359): R | antibiotic susceptibility S/I/R (host strain YMC14/08/R1169): R | susceptibility category (S/I/R) (host strain YMC14/08/R1169): R | antibiotic susceptibility S/I/R (host strain YMC14/08/T90): R | susceptibility category (S/I/R) (host strain YMC14/08/T90): R | antibiotic susceptibility S/I/R (host strain YMC15/02/R436): R | susceptibility category (S/I/R) (host strain YMC15/02/R436): R | antibiotic susceptibility S/I/R (host strain YMC15/02/T28): R | susceptibility category (S/I/R) (host strain YMC15/02/T28): R | antibiotic susceptibility S/I/R (host strain YMC15/03/R1604): R | susceptibility category (S/I/R) (host strain YMC15/03/R1604): R | antibiotic susceptibility S/I/R (host strain YMC15/09/R1869): R | susceptibility category (S/I/R) (host strain YMC15/09/R1869): R | antibiotic susceptibility S/I/R (host strain YMC16/01/P11): R | susceptibility category (S/I/R) (host strain YMC16/01/P11): R | antibiotic susceptibility S/I/R (host strain YMC16/01/R123): R | susceptibility category (S/I/R) (host strain YMC16/01/R123): R | antibiotic susceptibility S/I/R (host strain YMC16/01/R198): R | susceptibility category (S/I/R) (host strain YMC16/01/R198): R | antibiotic susceptibility S/I/R (host strain YMC16/01/R353): R | susceptibility category (S/I/R) (host strain YMC16/01/R353): R | antibiotic susceptibility S/I/R (host strain YMC16/01/R380): R | susceptibility category (S/I/R) (host strain YMC16/01/R380): R | antibiotic susceptibility S/I/R (host strain YMC16/01/R397): R | susceptibility category (S/I/R) (host strain YMC16/01/R397): R | antibiotic susceptibility S/I/R (host strain YMC16/01/R405): R | susceptibility category (S/I/R) (host strain YMC16/01/R405): R | antibiotic susceptibility S/I/R (host strain YMC16/03/R4461): R | susceptibility category (S/I/R) (host strain YMC16/03/R4461): R | antibiotic susceptibility S/I/R (host strain YMC16/05/R2210): R | susceptibility category (S/I/R) (host strain YMC16/05/R2210): R | antibiotic susceptibility S/I/R (host strain YMC16/07/R2512): R | susceptibility category (S/I/R) (host strain YMC16/07/R2512): R | antibiotic susceptibility S/I/R (host strain YMC16/09/R2471): R | susceptibility category (S/I/R) (host strain YMC16/09/R2471): R | antibiotic susceptibility S/I/R (host strain YMC16/10/R2537): R | susceptibility category (S/I/R) (host strain YMC16/10/R2537): R | antibiotic susceptibility S/I/R (host strain YMC16/12/B11422): R | susceptibility category (S/I/R) (host strain YMC16/12/B11422): R | antibiotic susceptibility S/I/R (host strain YMC16/12/B11449): R | susceptibility category (S/I/R) (host strain YMC16/12/B11449): R | antibiotic susceptibility S/I/R (host strain YMC16/12/B13325): R | susceptibility category (S/I/R) (host strain YMC16/12/B13325): R | antibiotic susceptibility S/I/R (host strain YMC16/12/P503): R | susceptibility category (S/I/R) (host strain YMC16/12/P503): R | antibiotic susceptibility S/I/R (host strain YMC16/12/R4637): R | susceptibility category (S/I/R) (host strain YMC16/12/R4637): R | antibiotic susceptibility S/I/R (host strain YMC17/01/B8053): R | susceptibility category (S/I/R) (host strain YMC17/01/B8053): R | antibiotic susceptibility S/I/R (host strain YMC17/01/B10087): R | susceptibility category (S/I/R) (host strain YMC17/01/B10087): R | antibiotic susceptibility S/I/R (host strain YMC17/01/B12075): R | susceptibility category (S/I/R) (host strain YMC17/01/B12075): R | antibiotic susceptibility S/I/R (host strain YMC17/01/B13454): R | susceptibility category (S/I/R) (host strain YMC17/01/B13454): R | antibiotic susceptibility S/I/R (host strain YMC17/01/P518): R | susceptibility category (S/I/R) (host strain YMC17/01/P518): R | antibiotic susceptibility S/I/R (host strain YMC17/01/R2812): R | susceptibility category (S/I/R) (host strain YMC17/01/R2812): R | antibiotic susceptibility S/I/R (host strain YMC17/02/B14): R | susceptibility category (S/I/R) (host strain YMC17/02/B14): R | antibiotic susceptibility S/I/R (host strain YMC17/02/B87): R | susceptibility category (S/I/R) (host strain YMC17/02/B87): R | antibiotic susceptibility S/I/R (host strain YMC17/02/B721): R | susceptibility category (S/I/R) (host strain YMC17/02/B721): R | antibiotic susceptibility S/I/R (host strain YMC17/02/B4039): R | susceptibility category (S/I/R) (host strain YMC17/02/B4039): R | antibiotic susceptibility S/I/R (host strain YMC17/02/B4520): R | susceptibility category (S/I/R) (host strain YMC17/02/B4520): R | antibiotic susceptibility S/I/R (host strain YMC17/02/B4864): S | susceptibility category (S/I/R) (host strain YMC17/02/B4864): S | antibiotic susceptibility S/I/R (host strain YMC17/02/B8414): R | susceptibility category (S/I/R) (host strain YMC17/02/B8414): R | antibiotic susceptibility S/I/R (host strain YMC17/02/P523): R | susceptibility category (S/I/R) (host strain YMC17/02/P523): R | antibiotic susceptibility S/I/R (host strain YMC17/02/R541): R | susceptibility category (S/I/R) (host strain YMC17/02/R541): R | antibiotic susceptibility S/I/R (host strain YMC17/02/R2392): R | susceptibility category (S/I/R) (host strain YMC17/02/R2392): R | antibiotic susceptibility S/I/R (host strain YMC17/03/B4730): R | susceptibility category (S/I/R) (host strain YMC17/03/B4730): R | antibiotic susceptibility S/I/R (host strain YMC17/03/B5000): R | susceptibility category (S/I/R) (host strain YMC17/03/B5000): R | antibiotic susceptibility S/I/R (host strain YMC17/03/P971): R | susceptibility category (S/I/R) (host strain YMC17/03/P971): R | antibiotic susceptibility S/I/R (host strain YMC17/03/R348): R | susceptibility category (S/I/R) (host strain YMC17/03/R348): R | antibiotic susceptibility S/I/R (host strain YMC17/03/R585): R | susceptibility category (S/I/R) (host strain YMC17/03/R585): R | antibiotic susceptibility S/I/R (host strain YMC17/03/R1888): R | susceptibility category (S/I/R) (host strain YMC17/03/R1888): R | antibiotic susceptibility S/I/R (host strain YMC17/03/R3279): R | susceptibility category (S/I/R) (host strain YMC17/03/R3279): R | antibiotic susceptibility S/I/R (host strain YMC17/03/R4077): R | susceptibility category (S/I/R) (host strain YMC17/03/R4077): R | antibiotic susceptibility S/I/R (host strain YMC17/03/R4607): R | susceptibility category (S/I/R) (host strain YMC17/03/R4607): R | antibiotic susceptibility S/I/R (host strain YMC17/04/R488): R | susceptibility category (S/I/R) (host strain YMC17/04/R488): R | antibiotic susceptibility S/I/R (host strain YMC17/04/R640): R | susceptibility category (S/I/R) (host strain YMC17/04/R640): R | antibiotic susceptibility S/I/R (host strain YMC/17/05/R1095): R | susceptibility category (S/I/R) (host strain YMC/17/05/R1095): R
